Laboratory results from ChEMBL document CHEMBL1152168 (Bioorg Med Chem Lett, 2008).
pIC50: −log10 of the molar value. In brackets after ≈: the same amount, converted by molar mass.

Assays:
[1] = Inhibition of MEK-stimulated ERK phosphorylation in PDGF-stimulated mouse C26 cells treated as single oral dose before PDGF challenge by whole cell assay; assay type: cell-based
[2] = Aqueous solubility in phosphate buffer at pH 6.5; assay type: physicochemical
[3] = Inhibition of MEK-mediated phosphorylation of myelin basic protein by kinase cascade assay
[4] = Inhibition of MEK-mediated ERK phosphorylation in PDGF-stimulated mouse K-Balb cells treated as single oral dose preincubated for 1 hr before PDGF challenge by whole cell assay
[5] = Inhibition of MEK-mediated ERK phosphorylation in PDGF-stimulated mouse K-Balb cells treated as single oral dose preincubated for 24 hrs before PDGF challenge by whole cell assay
[6] = Distribution coefficient, log D of the compound; assay type: physicochemical; conditions: octanol/water
[7] = Metabolic stability in human liver microsomes; assay type: ADME, Microsome
[8] = Metabolic stability in human hepatocytes; assay type: ADME, cell-based, Liver, Hepatocyte
[9] = Permeability across human Caco-2 cells; assay type: ADME, cell-based; conditions: read-out: permeability
[10] = tested on: Mus musculus; assay: Inhibition of MEK-mediated ERK phosphorylation in mouse C26 cells xenografted mouse at 100 mg/kg, po after 1 day; assay type: functional; conditions: C26, 24 h
[11] = Antitumor activity in mouse C26 cells xenografted mouse assessed as 100% reduction in tumor mass at 75 mg/kg/treatment, po dosed thrice a day after 14 days; assay type: functional; set-up: scale not given: the % may be the effect or the level left
[12] = Antitumor activity in mouse C26 cells xenografted mouse assessed as 100% reduction in tumor mass at 300 mg/kg/treatment, po dosed thrice a day after 14 days; assay type: functional; set-up: scale not given: the % may be the effect or the level left
[13] = Antitumor activity in mouse C26 cells xenografted mouse assessed as 50% reduction in tumor mass at 75 mg/kg/treatment, po dosed thrice a day after 14 days; assay type: functional; set-up: scale not given: the % may be the effect or the level left
[14] = Antitumor activity in mouse C26 cells xenografted mouse assessed as 50% reduction in tumor mass at 300 mg/kg/treatment, po dosed thrice a day after 14 days; assay type: functional; set-up: scale not given: the % may be the effect or the level left
[15] = Antitumor activity in mouse C26 cells xenografted mouse assessed as tumor growth delay at 75 mg/kg/treatment, po dosed thrice a day after 14 days relative to control; assay type: functional
[16] = Antitumor activity in mouse C26 cells xenografted mouse assessed as tumor growth delay at 300 mg/kg/treatment, po dosed thrice a day after 14 days relative to control; assay type: functional
[17] = Antitumor activity in mouse C26 cells xenografted mouse assessed as tumor growth delay at 1.6 mg/kg/treatment, po qd after 14 days relative to control; assay type: functional
[18] = Antitumor activity in mouse C26 cells xenografted mouse assessed as tumor growth delay at 25 mg/kg/treatment, po qd after 14 days relative to control; assay type: functional
[19] = tested on: Mus musculus; assay: Inhibition of MEK-mediated ERK phosphorylation in mouse C26 cells xenografted mouse at 50 mg/kg, po after 1 day; assay type: functional; conditions: C26, 24 h
[20] = tested on: Mus musculus; assay: Inhibition of MEK-mediated ERK phosphorylation in mouse C26 cells xenografted mouse at 12.5 mg/kg, po after 1 day; assay type: functional; conditions: C26, 24 h
[21] = Antitumor activity in mouse C26 cells xenografted mouse assessed as 100% reduction in tumor mass at 1.6 mg/kg/treatment, po qd after 14 days; assay type: functional; set-up: scale not given: the % may be the effect or the level left
[22] = Antitumor activity in mouse C26 cells xenografted mouse assessed as 100% reduction in tumor mass at 25 mg/kg/treatment, po qd after 14 days; assay type: functional; set-up: scale not given: the % may be the effect or the level left
[23] = Antitumor activity in mouse C26 cells xenografted mouse assessed as 50% reduction in tumor mass at 1.6 mg/kg/treatment, po qd after 14 days; assay type: functional; set-up: scale not given: the % may be the effect or the level left
[24] = Antitumor activity in mouse C26 cells xenografted mouse assessed as 50% reduction in tumor mass at 25 mg/kg/treatment, po qd after 14 days; assay type: functional; set-up: scale not given: the % may be the effect or the level left
[25] = Toxicity in mouse assessed as maximum tolerated dose; assay type: organism-based; conditions: in vivo
[26] = Antitumor activity in mouse C26 cells xenografted mouse assessed as minimal effective dose; assay type: functional; conditions: read-out: MED

Structure (SMILES)	pIC50 [3]	pIC50 [4]	pIC50 [5]	also measured
O=C(NOCCO)c1ccc(F)c(F)c1Nc1ccc(I)cc1Cl				pIC50 [1]: 8.46; solubility [2]: < 0.001 mg/mL
Cc1cc(I)ccc1Nc1c(C(=O)NOCC2CCCC2)cc(Br)c(F)c1F	7.64	6.92	6.18	
O=C(O)c1ccccc1Nc1ccc(I)cc1	5.52			
O=C(NOCC1CC1)c1ccc(F)cc1Nc1ccc(I)cc1Cl	7.89	7.26	7.07	
O=C(NOCC1CC1)c1ccc(F)c(F)c1Nc1ccc(I)cc1Cl [CI-1040]	8.64	8.61	7.45	logD [6]: > 5; pIC50 [1]: 7.46; half-life [7]: 0.192 h; half-life [8]: 1.67 h; Papp [9]: 162 nm/s; inhibition in vivo at 100 mg/kg [10]: 14%; Activity [11]: 10%; Activity [12]: 70%; Activity [13]: 20%; Activity [14]: 30%; Activity [15]: 10.8 days; Activity [16]: 12.7 days
Cc1cc(I)ccc1Nc1cc(F)ccc1C(=O)O	7.82			
CCCONC(=O)c1ccc(F)c(F)c1Nc1ccc(I)cc1C	7.74	8.35	6.87	
Cc1cc(I)ccc1Nc1cc(F)ccc1C(=O)NOCC1CC1	7.57	7.63	6.59	
O=C(NOCC1CC1)c1ccc(F)c(F)c1Nc1ccc(I)cc1F				pIC50 [1]: 9.00; solubility [2]: < 0.001 mg/mL
Cc1cc(I)ccc1Nc1cc(F)ccc1C(=O)NO	8.10	8.45	6.20	
Cc1cc(I)ccc1Nc1c(C(=O)O)ccc(F)c1F	8.24			
Cc1cc(I)ccc1Nc1cc(Cl)ccc1C(=O)O	6.26			
Cc1cc(I)ccc1Nc1ccccc1C(=O)O	6.41			
Cc1cc(I)ccc1Nc1ccc(F)cc1C(=O)O	6.78			
Cc1cc(I)ccc1Nc1c(C(=O)NOCC2CC2)cc(Br)c(F)c1F	8.11	7.58	6.95	
O=C(O)c1ccccc1Nc1cccc(I)c1	< 5.00			
O=C(NOCC(O)CO)c1ccc(F)c(F)c1Nc1ccc(I)cc1F (racemic)				solubility [2]: 0.147 mg/mL (≈ 305 µM)
Cc1cc(I)ccc1Nc1c(C(=O)NOCC2CCCCC2)cc(Br)c(F)c1F	7.32	5.94	5.75	
Cc1cc(I)ccc1Nc1c(C(=O)O)cc(F)c(F)c1F	8.17			
O=C(NOC[C@@H](O)CO)c1ccc(F)c(F)c1Nc1ccc(I)cc1F				solubility [2]: 0.255 mg/mL (≈ 529 µM)
Cc1cc(I)ccc1Nc1c(C(=O)NOC(C)C)ccc(F)c1F	7.46	8.09	6.63	
O=C(NO)c1ccc(F)cc1Nc1ccc(I)cc1Cl	8.55	8.80	6.19	
Cc1cc(I)ccc1Nc1c(C(=O)NOCC2CCC2)cc(Br)c(F)c1F	8.00	7.12	6.49	
Cc1cc(I)ccc1Nc1cccc(F)c1C(=O)O	6.29			
CONC(=O)c1ccc(F)cc1Nc1ccc(I)cc1C	7.59	7.93	7.30	
O=C(NOC[C@H](O)CO)c1ccc(F)c(F)c1Nc1ccc(I)cc1F [MIRDAMETINIB]				Activity [17]: 7.7 days; Activity [18]: 15.4 days; logD [6]: 4.6; solubility [2]: 0.19 mg/mL (≈ 394 µM); half-life [7]: > 1.67 h; half-life [8]: 6.17 h; Papp [9]: 727 nm/s; inhibition in vivo at 50 mg/kg [19]: 84%; inhibition in vivo at 12.5 mg/kg [20]: 59%; Activity [21]: 20%; Activity [22]: 70%; Activity [23]: 0%; Activity [24]: 30%; MTD [25]: 25 mg/kg; minimal effective dose [26]: 1.6 mg/kg
CCONC(=O)c1ccc(F)c(F)c1Nc1ccc(I)cc1C	7.70	8.38	7.33	
Cc1cc(I)ccc1Nc1c(C(=O)NOCC2CC2)ccc(F)c1F	8.15	8.19	6.76	
O=C(NOCC(O)CO)c1ccc(F)c(F)c1Nc1ccc(I)cc1Cl (racemic)				pIC50 [1]: 7.72
O=C(O)c1ccccc1Nc1ccccc1I	< 5.00			
